How the values were obtained:
[1] = system: Male Sprague-Dawley rats; experiment: Locomotor activity after intranasal administration with and without CMC; format: in vivo; conditions: 1.0 mg/kg
[2] = system: Anesthetized Dog; experiment: Cardiovascular effects after intravenous bolus injection in anesthetized dogs
[3] = Serum and brain tissue levels after oral administration, LC/MS/MS; conditions: rat, 5 mg/kg d-amphetamine base

Compound: CC(Cc1ccccc1)NC(=O)C(N)CCCCN [L-lysine-d-amphetamine, 2,6-diaminohexanoic acid-(1-methyl-2-phenylethyl)-amide]
- Percent d-amphetamine ([1]; activity above baseline relative to d-amphetamine): 35%
- Increase in activity over baseline compared to d-amphetamine dosed animals ([1]; rat, with CMC): 9%
- DAP % Change from respective Time 0 ([2]; 0.5 mg/kg, TIME 0): 0%
- DAP - diastolic arterial pressure ([2]; 0.5 mg/kg, TIME 0): 51 mmHg
- LVP % Change from respective Time 0 ([2]; 0.5 mg/kg, TIME 0): 0%
- LVP - left ventricular pressure ([2]; 0.5 mg/kg, TIME 0): 86 mmHg
- MAP % Change from respective Time 0 ([2]; 0.5 mg/kg, TIME 0): 0%
- MAP - mean arterial pressure ([2]; 0.5 mg/kg, TIME 0): 64 mmHg
- SAP % Change from respective Time 0 ([2]; 0.5 mg/kg, TIME 0): 0%
- SAP - systolic arterial pressure ([2]; 0.5 mg/kg, TIME 0): 84 mmHg
- DAP % Change from respective Time 0 ([2]; 0.5 mg/kg, TIME 5): 3%
- DAP - diastolic arterial pressure ([2]; 0.5 mg/kg, TIME 5): 52 mmHg
- LVP % Change from respective Time 0 ([2]; 0.5 mg/kg, TIME 5): 2%
- LVP - left ventricular pressure ([2]; 0.5 mg/kg, TIME 5): 87 mmHg
- MAP % Change from respective Time 0 ([2]; 0.5 mg/kg, TIME 5): 3%
- MAP - mean arterial pressure ([2]; 0.5 mg/kg, TIME 5): 66 mmHg
- SAP % Change from respective Time 0 ([2]; 0.5 mg/kg, TIME 5): 4%
- SAP - systolic arterial pressure ([2]; 0.5 mg/kg, TIME 5): 87 mmHg
- DAP % Change from respective Time 0 ([2]; 0.5 mg/kg, TIME 15): 1%
- DAP - diastolic arterial pressure ([2]; 0.5 mg/kg, TIME 15): 51 mmHg
- LVP % Change from respective Time 0 ([2]; 0.5 mg/kg, TIME 15): 11%
- LVP - left ventricular pressure ([2]; 0.5 mg/kg, TIME 15): 95 mmHg
- MAP % Change from respective Time 0 ([2]; 0.5 mg/kg, TIME 15): 5%
- MAP - mean arterial pressure ([2]; 0.5 mg/kg, TIME 15): 67 mmHg
- SAP % Change from respective Time 0 ([2]; 0.5 mg/kg, TIME 15): 11%
- SAP - systolic arterial pressure ([2]; 0.5 mg/kg, TIME 15): 93 mmHg
- DAP % Change from respective Time 0 ([2]; 0.5 mg/kg, TIME 25): 8%
- DAP - diastolic arterial pressure ([2]; 0.5 mg/kg, TIME 25): 55 mmHg
- LVP % Change from respective Time 0 ([2]; 0.5 mg/kg, TIME 25): 22%
- LVP - left ventricular pressure ([2]; 0.5 mg/kg, TIME 25): 105 mmHg
- MAP % Change from respective Time 0 ([2]; 0.5 mg/kg, TIME 25): 15%
- MAP - mean arterial pressure ([2]; 0.5 mg/kg, TIME 25): 73 mmHg
- SAP % Change from respective Time 0 ([2]; 0.5 mg/kg, TIME 25): 25%
- DAP % Change from respective Time 0 ([2]; 0.5 mg/kg, TIME 30): 14%
- DAP - diastolic arterial pressure ([2]; 0.5 mg/kg, TIME 30): 58 mmHg
- LVP % Change from respective Time 0 ([2]; 0.5 mg/kg, TIME 30): 26%
- MAP % Change from respective Time 0 ([2]; 0.5 mg/kg, TIME 30): 21%
- MAP - mean arterial pressure ([2]; 0.5 mg/kg, TIME 30): 77 mmHg
- SAP % Change from respective Time 0 ([2]; 0.5 mg/kg, TIME 30): 28%
- DAP % Change from respective Time 0 ([2]; 1.0 mg/kg, TIME 0): 0%
- DAP - diastolic arterial pressure ([2]; 1.0 mg/kg, TIME 0): 55 mmHg
- LVP % Change from respective Time 0 ([2]; 1.0 mg/kg, TIME 0): 0%
- MAP % Change from respective Time 0 ([2]; 1.0 mg/kg, TIME 0): 0%
- MAP - mean arterial pressure ([2]; 1.0 mg/kg, TIME 0): 74 mmHg
- SAP % Change from respective Time 0 ([2]; 1.0 mg/kg, TIME 0): 0%
- SAP - systolic arterial pressure ([2]; 1.0 mg/kg, TIME 0): 105 mmHg
- DAP % Change from respective Time 0 ([2]; 1.0 mg/kg, TIME 5): 15%
- DAP - diastolic arterial pressure ([2]; 1.0 mg/kg, TIME 5): 63 mmHg
- LVP % Change from respective Time 0 ([2]; 1.0 mg/kg, TIME 5): 11%
- LVP - left ventricular pressure ([2]; 1.0 mg/kg, TIME 5): 120 mmHg
- MAP % Change from respective Time 0 ([2]; 1.0 mg/kg, TIME 5): 15%
- MAP - mean arterial pressure ([2]; 1.0 mg/kg, TIME 5): 85 mmHg
- SAP % Change from respective Time 0 ([2]; 1.0 mg/kg, TIME 5): 15%
- DAP % Change from respective Time 0 ([2]; 1.0 mg/kg, TIME 15): 33%
- DAP - diastolic arterial pressure ([2]; 1.0 mg/kg, TIME 15): 73 mmHg
- LVP % Change from respective Time 0 ([2]; 1.0 mg/kg, TIME 15): 29%
- LVP - left ventricular pressure ([2]; 1.0 mg/kg, TIME 15): 140 mmHg
- MAP % Change from respective Time 0 ([2]; 1.0 mg/kg, TIME 15): 35%
- MAP - mean arterial pressure ([2]; 1.0 mg/kg, TIME 15): 100 mmHg
- SAP % Change from respective Time 0 ([2]; 1.0 mg/kg, TIME 15): 35%
- DAP % Change from respective Time 0 ([2]; 1.0 mg/kg, TIME 25): 75%
- DAP - diastolic arterial pressure ([2]; 1.0 mg/kg, TIME 25): 97 mmHg
- LVP % Change from respective Time 0 ([2]; 1.0 mg/kg, TIME 25): 50%
- MAP % Change from respective Time 0 ([2]; 1.0 mg/kg, TIME 25): 68%
- SAP % Change from respective Time 0 ([2]; 1.0 mg/kg, TIME 25): 55%
- DAP % Change from respective Time 0 ([2]; 1.0 mg/kg, TIME 30): 32%
- DAP - diastolic arterial pressure ([2]; 1.0 mg/kg, TIME 30): 73 mmHg
- LVP % Change from respective Time 0 ([2]; 1.0 mg/kg, TIME 30): 33%
- MAP % Change from respective Time 0 ([2]; 1.0 mg/kg, TIME 30): 32%
- MAP - mean arterial pressure ([2]; 1.0 mg/kg, TIME 30): 98 mmHg
- SAP % Change from respective Time 0 ([2]; 1.0 mg/kg, TIME 30): 28%
- DAP % Change from respective Time 0 ([2]; 5.0 mg/kg, TIME 0): 0%
- DAP - diastolic arterial pressure ([2]; 5.0 mg/kg, TIME 0): 71 mmHg
- LVP % Change from respective Time 0 ([2]; 5.0 mg/kg, TIME 0): 0%
- MAP % Change from respective Time 0 ([2]; 5.0 mg/kg, TIME 0): 0%
- MAP - mean arterial pressure ([2]; 5.0 mg/kg, TIME 0): 95 mmHg
- SAP % Change from respective Time 0 ([2]; 5.0 mg/kg, TIME 0): 0%
- SAP - systolic arterial pressure ([2]; 5.0 mg/kg, TIME 0): 132 mmHg
- DAP % Change from respective Time 0 ([2]; 5.0 mg/kg, TIME 5): 0%
- DAP - diastolic arterial pressure ([2]; 5.0 mg/kg, TIME 5): 71 mmHg
- LVP % Change from respective Time 0 ([2]; 5.0 mg/kg, TIME 5): 5%
- MAP % Change from respective Time 0 ([2]; 5.0 mg/kg, TIME 5): 4%
- MAP - mean arterial pressure ([2]; 5.0 mg/kg, TIME 5): 99 mmHg
- SAP % Change from respective Time 0 ([2]; 5.0 mg/kg, TIME 5): 7%
- DAP % Change from respective Time 0 ([2]; 5.0 mg/kg, TIME 15): 39%
- DAP - diastolic arterial pressure ([2]; 5.0 mg/kg, TIME 15): 98 mmHg
- LVP % Change from respective Time 0 ([2]; 5.0 mg/kg, TIME 15): 28%
- MAP % Change from respective Time 0 ([2]; 5.0 mg/kg, TIME 15): 37%
- MAP - mean arterial pressure ([2]; 5.0 mg/kg, TIME 15): 130 mmHg
- SAP % Change from respective Time 0 ([2]; 5.0 mg/kg, TIME 15): 33%
- DAP % Change from respective Time 0 ([2]; 5.0 mg/kg, TIME 25): −3%
- DAP - diastolic arterial pressure ([2]; 5.0 mg/kg, TIME 25): 69 mmHg
- LVP % Change from respective Time 0 ([2]; 5.0 mg/kg, TIME 25): 11%
- LVP - left ventricular pressure ([2]; 5.0 mg/kg, TIME 25): 160 mmHg
- MAP % Change from respective Time 0 ([2]; 5.0 mg/kg, TIME 25): 1%
- MAP - mean arterial pressure ([2]; 5.0 mg/kg, TIME 25): 96 mmHg
- SAP % Change from respective Time 0 ([2]; 5.0 mg/kg, TIME 25): −5%
- DAP % Change from respective Time 0 ([2]; 5.0 mg/kg, TIME 30): −1%
- DAP - diastolic arterial pressure ([2]; 5.0 mg/kg, TIME 30): 70 mmHg
- LVP % Change from respective Time 0 ([2]; 5.0 mg/kg, TIME 30): 13%
- MAP % Change from respective Time 0 ([2]; 5.0 mg/kg, TIME 30): 4%
- MAP - mean arterial pressure ([2]; 5.0 mg/kg, TIME 30): 99 mmHg
- SAP % Change from respective Time 0 ([2]; 5.0 mg/kg, TIME 30): 0%
- SAP - systolic arterial pressure ([2]; 5.0 mg/kg, TIME 30): 132 mmHg
- Effect on mean blood pressure after the first (lowest) dose ([2]; dog, IV bolus, 0.202 mg/kg d-amphetamine, equimolar to 0.5 mg/kg L-lysine-d-amphetamine): very little change in mean BP
- Increase of mean blood pressure ([2]; dog, IV bolus, approximately 30 minutes after injection): 20-50%
- Intact conjugate in serum [3]: present in appreciable amounts in serum

Reference: US7375083B2, “Pharmaceutical compositions for prevention of overdose or abuse” (Shire LLC, priority 2003, dated 2008)
